These results are taken from article PMC9054546, “Synthesis and molecular modeling studies of cholinesterase inhibitor dispiro[indoline-3,2′-pyrrolidine-3′,3′′-pyrrolidines]” (RSC Advances, 2020).

For data set [1], the target named is T1, AChE (Homo sapiens, UniProt P22303). Kind of data set: biochemical. The note with it: for SI(AChE/BChE): selectivity index = IC50 (AChE)/IC50 (BChE). On the procedure:
Butyrylthiocholine iodide and acetylthiocholine were utilized as substrates in BChE and AChE assays, respectively, where DTNB was served as indicator. All compounds were dissolved in MeOH. […] Blank assays were performed by replacing the enzyme (20 μL) with buffer and their absorbances were recorded for correction of the spontaneous lysis of the indicator or inherent color of the inhibitor.
Selectivity index (SI) for acetyl and butyryl cholinesterases was calculated as follow:SI(AChE/BChE) = IC50 (AChE)/IC50 (BChE)SI(BChE/AChE) = […]

Data set [2] has as its target T2, BChE (Homo sapiens, UniProt P06276). As to the kind of experiment: biochemical. The note with it: for SI(BChE/AChE): selectivity index BChE/AChE. How it is done: Butyrylthiocholine iodide and acetylthiocholine were utilized as substrates in BChE and AChE assays, respectively, where DTNB was served as indicator. All compounds were dissolved in MeOH. […] Blank assays were performed by replacing the enzyme (20 μL) with buffer and their absorbances were recorded for correction of the spontaneous lysis of the indicator or inherent color of the inhibitor. […]

In data set [3] the test system is RPE1 (human immortalized retinal pigment epithelial cell line). Kind of data set: Antiproliferative/cytotoxicity MTT assay on normal cell line. It is filed as cell-based. The note with it: RPE-1, 72 h incubation, tested at 100, 50, 25 and 12.5 μM, read-out: IC50 against RPE1. The text has this:
Antiproliferative properties of the synthesized agents 8a–l were considered against RPE1 (human immortalized retinal pigment epithelial cell line) normal cell line utilizing the standard MTT (tetrazolium salt) technique.[37]
The synthesized agents 8a–l were screened against RPE1 (human immortalized retinal pigment epithelial cell line) normal cell line to investigate their cytotoxicity by the standard mitochondrial dependent reduction of yellow MTT [3-(4,5-dimethylthiazol-2-yl)-2,5-diphenyl-tetrazolium bromide] to purple formazan technique.[37] Cells were suspended in DMEM in addition to 1% antibiotic–antimycotic mixture (10 000 μg mL^−1 potassium penicillin, 10 000 μg mL^−1 streptomycin sulfate and 25 μg mL^−1 amphotericin B), 10% fetal bovine serum and 1% L-glutamine at 37 °C, under 5% CO2 and 95% humidity. Cells were seeded at concentration of 30 000 cells per well in fresh complete growth medium in 96-well tissue culture microtiter plates for 24 h. […] 0.5% DMSO was used as negative control. Triplicate wells were prepared for each individual dose. After 72 h of incubation, medium was aspirated, 40 μl MTT salt (2.5 mg mL^−1) were added to each well and incubated for further 4 h at 37 °C. To stop the reaction and dissolve the formed crystals, 150 μL of 10% sodium dodecyl sulfate (SDS) in deionized water were added to each well and incubated overnight at 37 °C.
Data were collected as mean values for experiments performed in triplicates for each individual dose which had been measured by MTT assay. […] The percentage of cell survival was calculated according to the following equation. [drawing 1]
Statistical calculations for determination of the mean and standard error values were determined by SPSS 16 software.

The subject of data set [4] is mice. Kind of data set: Acute toxicological bio-assay in mice. Format: in vivo. The following applies: intraperitoneal, 50, 100 and 250 mg kg−1, recorded 24 h post-administration. How it is done:
Albino mice weighing 20–25 g were divided into 4 groups of 6 mice each. Administrations of the tested compounds dissolved in saline solution (0.9%) by the aid of few drops of Tween 80 were given intraperitoneally in 50, 100 and 250 mg kg^−1 (mice body weight). The control group was given a saline solution only with few drops of Tween 80. The toxic symptoms and mortality rates were recorded 24 h post-administration in each group.

In data set [5] the target is T1, AChE. Kind of data set: 2D-QSAR (BMLR, CODESSA-Pro) model, AChE inhibitors. The following applies: observed minus estimated IC50. The text has this: (§1) The cholinesterase properties observed were undertaken by CODESSA-Pro software accessible for optimizing 2D-QSAR models.[39–41] This is useful for well understanding the bio-observations and identifying the parameters necessary for bio-potency. Three descriptor QSAR models were developed due to the AChE and BChE inhibitory properties of the synthesized dispiro-compounds 8a–l (ESI Tables S4–S9, Fig. S40 and S41, details of the QSAR descriptors are also mentioned in the ESI). ^† […]
(§2) Goodness of the QSAR models was supported by the comparative values of the correlation coefficient (R^2) with their cross validation of leave one-out (R^2cvOO) and leave many-out (R^2cvMO) [R^2 = 0.923, 0.979; R^2cvOO = 0.882, 0.936; R^2cvMO = 0.904, 0.956, for AChE and BChE models, respectively]. Standard deviation (s^2) and Fisher criteria (F) values of the models also support their goodness (s^2 = 0.026, 0.005; […]. Additionally, the correlations of the observed and predicted values “specially the high potent synthesized compounds” add good support for the attained models. […]
(§3) Molecular modeling studies
(§4) The synthesized dispiro[indoline-3,2'-pyrrolidine-3',3''-pyrrolidines] 8a‒l […]
(§5) 2D-QSAR modeling by CODESSA-Pro (comprehensive descriptors for structural and statistical analysis) software. Geometry of the compounds was initially optimized by AM1 technique using hyperChem 8.0 then, uploaded to CODESSA-Pro for final geometrical structure optimization by MOPAC.10‒12 CODESSA-Pro calculated 656 molecular descriptors (constitutional, topological, geometrical, charge-related, semi-empirical, thermodynamical, molecular-type, atomic-type and bond-type descriptors) for […]
(§6) the exported bio-active agents. Mathematical transformation of the experimental values […]
(§7) QSAR model. The best multi-linear regression (BMLR) technique was utilized which is a stepwise search for the best n-parameter regression equations (where n stands for the number of descriptors used), based on the highest R2 (squared correlation coefficient), R2cvOO (squared cross-validation “leave one-out, LOO” coefficient), R2cvMO (squared cross-validation “leave many-out up to 20% of the training set, LMO” coefficient), F (Fisher statistical significance criteria) values, and s2 (standard deviation). The QSAR up to 3-descriptor model describing the biological activity of the bio-active agents were generated (obeying the thumb rule of 4:1 which is the ratio between the data points and the number of QSAR descriptor).
(§8) Minimum (>0.1) bond order for atom C is an atomic type descriptor with the […]
(§9) why the higher descriptor value, the lower AChE inhibitory efficacy of the tested agent as […]
(§10) 2/SQRT(TMSA) (MOPAC PC) is a charge related descriptor with relatively high […]
(§11) . Compounds with high descriptor value predicted low AChE
(§12) 0.11715). HDCA2 (area weighed surface charge of hydrogen bonding donor atoms) can be calculated by equ. (1). 13
(§13) HDCA2 = D … .DtotH‒donor (1)
(§14) Where, standsSD for the solvent accessible surface area of H-bonding donor H atoms (selected by threshold charge), is the partialqD charge on H-bonding donor H atoms (selected by threshold charge) and is the totalStot solvent accessible molecular surface […]
(§15) Square root of surface area for atom C is also a charge related descriptor with […]
(§16) . For this reason, the higher descriptor value of […]

Data set [6] concerns the target T2, BChE. Kind of data set: 2D-QSAR (BMLR, CODESSA-Pro) model, BChE inhibitors. The following applies: observed minus estimated IC50.
Description: as §1, §2, §3, §4, §5, §6, §7, §8, §9, §10, §11, §12, §13, §14, §15, §16
partial positively and negatively charged surface area can be calculated by equs. (2) and […]
PPSA3 = A … .. (2)A∈{δA>0}
PNSA3 = A … ..A∈{δA>0} (3)
Where, is the positively/negativelySA charged solvent accessible atomic surface area and qA is the atomic partial charge.
ZX Shadow/ZX rectangle is a geometrical descriptor with the highest coefficient […]
. The higher descriptor value of […]
compounds 8c and 8e, respectively). Relative shadow areas of a molecule can be determined by equ. (4). 13
Where, C is contour of the projection of the molecule on the plane defined by two principal axes of the molecule (k = XY, XZ or YZ plane), , , = X • ν –x or yρ –y or zS(k) […]
Maximum atomic state energy for atom O is an atomic type descriptor. […]

Where [7] appears, read: 10 min incubation at 25 °C, read at 405 nm, read-out: IC50 of AChE (μM) ± SD.
[8] abbreviates: log transformation of the observed IC50, read-out: Observed log(IC50, μM), AChE (converted).
Setting [9] is: 10 min incubation at 25 °C, read at 405 nm, read-out: IC50 of BChE (μM) ± SD.
The mark [10] stands for this setting: log transformation of the observed IC50, read-out: Observed log(IC50, μM), BChE (converted).

As a reminder, the IC50 is the concentration needed to halve the response being measured.

Each structure is given as a SMILES string. “And” between values parts separate entries of the source, which are not always exact repeats. Equal entries are not always repeated. Where two headings read alike, the source gives them in different places.

T1 sequence (P22303 32-614): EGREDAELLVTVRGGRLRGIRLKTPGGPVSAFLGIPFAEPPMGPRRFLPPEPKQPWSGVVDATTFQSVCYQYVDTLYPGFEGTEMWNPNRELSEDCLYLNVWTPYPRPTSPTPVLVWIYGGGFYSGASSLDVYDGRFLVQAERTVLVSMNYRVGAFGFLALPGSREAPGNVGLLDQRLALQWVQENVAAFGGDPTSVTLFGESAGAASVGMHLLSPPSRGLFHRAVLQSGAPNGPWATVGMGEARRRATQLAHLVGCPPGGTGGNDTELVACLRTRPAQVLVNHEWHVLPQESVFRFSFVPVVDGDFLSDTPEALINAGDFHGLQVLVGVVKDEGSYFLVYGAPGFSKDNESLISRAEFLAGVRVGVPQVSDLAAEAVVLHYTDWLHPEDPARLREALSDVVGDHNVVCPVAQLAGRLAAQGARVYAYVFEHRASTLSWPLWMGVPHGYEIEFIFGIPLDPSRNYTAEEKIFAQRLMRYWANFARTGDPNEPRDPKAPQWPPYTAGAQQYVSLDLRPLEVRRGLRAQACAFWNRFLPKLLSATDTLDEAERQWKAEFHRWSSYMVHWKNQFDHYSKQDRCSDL
T2 sequence (P06276 29-602): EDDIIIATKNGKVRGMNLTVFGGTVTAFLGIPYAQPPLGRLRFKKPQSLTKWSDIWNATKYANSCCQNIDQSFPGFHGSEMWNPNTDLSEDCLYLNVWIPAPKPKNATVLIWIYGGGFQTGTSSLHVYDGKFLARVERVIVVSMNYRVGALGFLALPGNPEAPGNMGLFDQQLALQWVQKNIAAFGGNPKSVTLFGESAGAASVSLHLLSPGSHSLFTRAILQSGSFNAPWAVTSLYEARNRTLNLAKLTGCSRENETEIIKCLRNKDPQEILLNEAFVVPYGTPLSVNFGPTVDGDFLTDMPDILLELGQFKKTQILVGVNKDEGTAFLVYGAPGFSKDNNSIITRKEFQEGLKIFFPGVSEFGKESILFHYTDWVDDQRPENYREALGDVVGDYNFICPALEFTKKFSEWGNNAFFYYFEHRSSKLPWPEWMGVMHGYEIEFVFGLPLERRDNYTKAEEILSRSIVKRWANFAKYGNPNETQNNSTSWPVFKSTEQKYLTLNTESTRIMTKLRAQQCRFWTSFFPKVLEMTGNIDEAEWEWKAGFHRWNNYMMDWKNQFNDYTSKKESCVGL

Consider `CN1CC(c2ccccc2)C2(CC(=O)N(c3ccc(Cl)cc3)C2=O)C12C(=O)Nc1ccccc12` (stereo not drawn) [Compound 8h, 1′′-(4-Chlorophenyl)-1′-methyl-4′-phenyldispiro[indoline-3,2′-pyrrolidine-3′,3′′-pyrrolidine]-2,2′′,5′′-trione], for which the IC50 in data set [1] (setting [7]) was 6.3 µM and 6.27 µM; in data set [1] (setting [8]) it was 6.27 µM; in data set [2] (setting [9]) it was 5.3 µM and 5.34 µM; in data set [2] (setting [10]), 5.34 µM; in data set [3], > 100 µM. The “SI(AChE/BChE)” value in data set [1] is 1.17. The “SI(BChE/AChE)” value in data set [2] turned out to be 0.85. In data set [4], the “Mortality rates or toxicological symptoms” value was “None of the tested agents reveal any mortality rates or toxicological symptoms”. Also, in data set [5], the “Error (difference between observed and estimated property values), AChE BMLR-QSAR model” value is -1.03 µM. For the same compound, in data set [6], the “Error (difference between observed and estimated property values), BChE BMLR-QSAR model” value was -0.81 µM.
As for `COc1ccc2c(c1)C1(C(=O)N2)N(C)CC(c2ccc(Cl)cc2)C12CC(=O)N(c1ccccc1)C2=O` (stereo not drawn) [Compound 8e, 4′-(4-Chlorophenyl)-5-methoxy-1′-methyl-1′′-phenyldispiro[indoline-3,2′-pyrrolidine-3′,3′′-pyrrolidine]-2,2′′,5′′-trione], the IC50 was 3.4 µM and 3.35 µM in data set [1] (setting [7]); 3.35 µM in data set [1] (setting [8]); 5.6 µM and 5.63 µM in data set [2] (setting [9]); 5.63 µM in data set [2] (setting [10]); > 100 µM in data set [3]. Moreover, the “SI(AChE/BChE)” value in data set [1] was 0.60. In addition, the “SI(BChE/AChE)” value in data set [2] stood at 1.68. For the same compound, the “Mortality rates or toxicological symptoms” value in data set [4] is “None of the tested agents reveal any mortality rates or toxicological symptoms”. The “Error (difference between observed and estimated property values), AChE BMLR-QSAR model” value in data set [5] was 0.10 µM. For the same compound, the “Error (difference between observed and estimated property values), BChE BMLR-QSAR model” value in data set [6] was 0.86 µM.
Turning to `COc1ccc(C2CN(C)C3(C(=O)Nc4ccc(OC)cc43)C23CC(=O)N(c2ccccc2)C3=O)cc1` (stereo not drawn) [Compound 8g, 5-Methoxy-4′-(4-methoxyphenyl)-1′-methyl-1′′-phenyldispiro[indoline-3,2′-pyrrolidine-3′,3′′-pyrrolidine]-2,2′′,5′′-trione], the IC50 is 3.2 µM and 3.15 µM in data set [1] (setting [7]); 3.15 µM in data set [1] (setting [8]); 4.7 µM and 4.74 µM in data set [2] (setting [9]); 4.74 µM in data set [2] (setting [10]); > 100 µM in data set [3]. Also, in data set [1], the “SI(AChE/BChE)” value stood at 0.66. The “SI(BChE/AChE)” value in data set [2] came out at 1.50. Moreover, in data set [4], the “Mortality rates or toxicological symptoms” value is “None of the tested agents reveal any mortality rates or toxicological symptoms”. Further, in data set [5], the “Error (difference between observed and estimated property values), AChE BMLR-QSAR model” value is -1.78 µM. Also, the “Error (difference between observed and estimated property values), BChE BMLR-QSAR model” value in data set [6] is -0.65 µM.
With `CN1CC(c2ccc(Cl)cc2)C2(CC(=O)N(c3ccc(Cl)cc3)C2=O)C12C(=O)Nc1ccc(Cl)cc12` (stereo not drawn) [Compound 8k, 5-Chloro-1′′,4′-bis(4-chlorophenyl)-1′-methyldispiro[indoline-3,2′-pyrrolidine-3′,3′′-pyrrolidine]-2,2′′,5′′-trione], the IC50 in data set [1] (setting [7]) is 13.9 µM; in data set [1] (setting [8]) it was 13.9 µM; in data set [2] (setting [9]), 10.2 ± 0.76 µM; in data set [2] (setting [10]), 10.2 µM; in data set [3], > 100 µM. The “SI(AChE/BChE)” value in data set [1] is recorded as 1.36. In addition, the “SI(BChE/AChE)” value in data set [2] amounted to 0.73. Besides, the “Error (difference between observed and estimated property values), AChE BMLR-QSAR model” value in data set [5] is -0.82 µM. Moreover, in data set [6], the “Error (difference between observed and estimated property values), BChE BMLR-QSAR model” value is 1.09 µM.
In the case of `COc1ccc(C2CN(C)C3(C(=O)Nc4ccc(Cl)cc43)C23CC(=O)N(c2ccccc2)C3=O)cc1` (stereo not drawn) [Compound 8f, 5-Chloro-4′-(4-methoxyphenyl)-1′-methyl-1′′-phenyldispiro[indoline-3,2′-pyrrolidine-3′,3′′-pyrrolidine]-2,2′′,5′′-trione], the IC50 in data set [1] (setting [7]) is 12.3 µM; in data set [1] (setting [8]), 12.3 µM; in data set [2] (setting [9]), 20.1 ± 0.16 µM; in data set [2] (setting [10]), 20.1 µM; in data set [3], > 100 µM. In data set [1], the “SI(AChE/BChE)” value was 0.61. The “SI(BChE/AChE)” value in data set [2] turned out to be 1.64. For the same compound, the “Error (difference between observed and estimated property values), AChE BMLR-QSAR model” value in data set [5] is 1.32 µM. For the same compound, in data set [6], the “Error (difference between observed and estimated property values), BChE BMLR-QSAR model” value was 1.88 µM.
